According to patent publication US8552022B2, “Substituted cyclopropyl compounds, compositions containing such compounds and methods of treatment” (Merck Sharp & Dohme Corp., priority 2009, dated 2013):

Target: T1, GPR119 (UniProt Q8TDV5, S309L, species not given)
T1 sequence (Q8TDV5 1-335 S309L): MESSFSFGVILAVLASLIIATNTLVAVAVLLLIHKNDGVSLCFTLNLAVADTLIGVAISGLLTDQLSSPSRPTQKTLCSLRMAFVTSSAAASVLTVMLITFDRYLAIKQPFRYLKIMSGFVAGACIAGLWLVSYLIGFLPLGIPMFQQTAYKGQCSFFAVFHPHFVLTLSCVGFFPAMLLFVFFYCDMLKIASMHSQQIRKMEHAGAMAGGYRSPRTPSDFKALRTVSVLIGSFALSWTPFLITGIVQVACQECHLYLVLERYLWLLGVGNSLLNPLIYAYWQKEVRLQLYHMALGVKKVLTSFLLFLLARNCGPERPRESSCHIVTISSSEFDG
Experiment: GPR119 signaling, cyclic AMP (cAMP) HTRF assay
Format: cell-based, human (S309L variant) or murine
Settings: CHO cells with Gα15 and murine GPR119 or HEK293 Flp-In cells with human GPR119 S309L, read-out: EC50 (agonist activation of GPR119, cAMP)
From the text: The title compound was synthesized using 2-{2-[1-(5-chloropyrimidin-2-yl)piperidin-4-yl]cyclopropyl}ethyl 4-methylbenzenesulfonate from step 1 of this example by a general procedure analogous that described in Example 59. LRMS calc: 424.9; obs: 425.01 (M+1). Measurement of GPR119Signaling Using a Cyclic AMP (cAMP) Homogenous Time Resolved Fluorescence (HTRF) Assay
Chinese hamster ovary (CHO) cell lines stably transfected with the permissive guanine nucleotide binding protein alpha 15 (Gα15) and murine GPR119 were maintained in DMEM media containing FBS, penicillin-streptomycin, puromycin, and G418 (geneticin). Alternatively, human embryonic kidney (HEK)293 Flp-In cells (Invitrogen, Carlsbad, Calif.) were stably transfected with a human SNP variant (S309L) of GPR119 and maintained in DMEM media containing FBS, penicillin-streptomycin, and hygromycin. Agonist activation of the GPR119 receptor was measured in receptor transfected cells described above, treated with compounds of this invention, using a commercial homogenous time resolved fluorescence (HTRF) kit for measurement of cAMP (CisBio, Bedford, Mass.). The assay was performed in 96-well half-volume plates (murine) or 384-well plates (human) following the manufacturers instructions. Briefly, suspended cells were incubated with a dose titration of test compound at room temperature for 60 min, lysed, and incubated with HTRF reagents for an additional 60 min. The plate was read using an Envision multilabel reader (Perkin Elmer) adjusted to read time resolved fluorescence and the cAMP concentrations were extrapolated from a cAMP calibration curve. […] The concentration of test compound required to stimulate a half-maximal response (EC50), and efficacy as compared to an internal agonist control, was determined from a sigmoidal 4-parameter curve fit of the resulting plot of normalized activity versus compound concentration.

EC50 [nM] | SMILES
< 10 | CC(C)(C)C(=O)Nc1ncc(NCC[C@@H]2C[C@@H]2C2CCN(c3ncc(Cl)cn3)CC2)cc1Cl [Ex 32, N-{3-chloro-5-[(2-{(1S,2S)-2-[1-(5-chloropyrimidin-2-yl)piperidin-4-yl]cyclopropyl}ethyl)amino]pyridin-2-yl}-2,2-dimethyl propanamide]
< 10 | Cc1cc(-n2cnnn2)cnc1NCC[C@@H]1C[C@@H]1C1CCN(c2ncc(Cl)cn2)CC1 [Ex 36, N-(2-{(1S,2S)-2-[1-(5-chloropyrimidin-2-yl)piperidin-4-yl]cyclopropyl}ethyl)-3-methyl-5-(1H-tetrazol-1-yl)pyridin-2-amine]
< 10 | Cc1n[nH]c2ccc(NCC[C@@H]3C[C@@H]3C3CCN(c4ncc(Cl)cn4)CC3)cc12 [Ex 47, N-(2-{(1S,2S)-2-[1-(5-chloropyrimidin-2-yl)piperidin-4-yl]cyclopropyl}ethyl)-3-methyl-1H-indazol-5-amine]
< 10 | Clc1cnc(N2CCC([C@H]3C[C@H]3CCNc3ccc(-n4cnnn4)cn3)CC2)nc1 [Ex 24, N-(2-{(1S,2S)-2-[1-(5-chloropyrimidin-2-yl)piperidin-4-yl]cyclopropyl}ethyl)-5-(1H-tetrazol-1-yl)pyridin-2-amine]
< 10 | Cc1cc(NCC[C@@H]2C[C@@H]2C2CCN(c3ncc(Cl)cn3)CC2)cnc1NC(=O)C1(C)CC1 [Ex 39]
10 to 50 | O=C1Cc2cc(NCC[C@@H]3C[C@@H]3C3CCN(c4ncc(Cl)cn4)CC3)ccc2N1 [Ex 50, 5-[(2-{(1S,2S)-2-[1-(5-chloropyrimidin-2-yl)piperidin-4-yl]cyclopropyl}ethyl)amino]-1,3-dihydro-2H-indol-2-one]
10 to 50 | CS(=O)(=O)c1ccc(NCC[C@@H]2C[C@@H]2C2CCN(c3ncc(Cl)cn3)CC2)nc1 [Ex 6, N-(2-{(1S,2S)-2-[1-(5-chloropyrimidin-2-yl)piperidin-4-yl]cyclopropyl}ethyl)-5-(methylsulfonyl)pyridin-2-amine]
10 to 50 | Cc1nnnn1-c1ccc(NCC[C@@H]2C[C@@H]2C2CCN(c3ncc(Cl)cn3)CC2)cn1 [Ex 18, N-(2-{(1S,2S)-2-[1-(5-chloropyrimidin-2-yl)piperidin-4-yl]cyclopropyl}ethyl)-6-(5-methyl-1H-tetrazol-1-yl)pyridin-3-amine]
10 to 50 | CC(=O)Nc1ccc(NCC[C@@H]2C[C@@H]2C2CCN(c3ncc(Cl)cn3)CC2)cc1 [Ex 52, N-{4-[(2-{(1S,2S)-2-[1-(5-chloropyrimidin-2-yl)piperidin-4-yl]cyclopropyl}ethyl)amino]phenyl}acetamide]
50 to 200 | CS(=O)(=O)c1ccc(NCC[C@@H]2C[C@H]2C2CCN(c3ncc(Cl)cn3)CC2)cc1 (single isomer, unassigned) [Ex 60, trans N-(2-{2-[1-(5-chloropyrimidin-2-yl)piperidin-4-yl]cyclopropyl}ethyl)-4-(methylsulfonyl)aniline]
< 10 | CC(C)(C)C(=O)Nc1ccc(NCC[C@@H]2C[C@@H]2C2CCN(c3ncc(Cl)cn3)CC2)nc1 [Ex 30, N-{6-[(2-{(1S,2S)-2-[1-(5-chloropyrimidin-2-yl)piperidin-4-yl]cyclopropyl}ethyl)amino]pyridin-3-yl}-2,2-dimethyl propanamide]
< 10 | O=C1NCc2cc(NCC[C@@H]3C[C@@H]3C3CCN(c4ncc(Cl)cn4)CC3)ccc21 [Ex 44, 5-[(2-{(1S,2S)-2-[1-(5-chloropyrimidin-2-yl)piperidin-4-yl]cyclopropyl}ethyl)amino]isoindolin-1-one]
10 to 50 | Clc1cnc(N2CCC([C@@H]3C[C@H]3CCNc3ccc(-n4cncn4)nc3)CC2)nc1 (single isomer, unassigned) [Ex 62, trans N-(2-{2-[1-(5-chloropyrimidin-2-yl)piperidin-4-yl]cyclopropyl}ethyl)-6-(1H-1,2,4-triazol-1-yl)pyridin-3-amine]
< 10 | CC(=O)Nc1ccc(NCC[C@@H]2C[C@@H]2C2CCN(c3ncc(Cl)cn3)CC2)cn1 [Ex 55, N-{5-[(2-{(1S,2S)-2-[1-(5-chloropyrimidin-2-yl)piperidin-4-yl]cyclopropyl}ethyl)amino]pyridin-2-yl}acetamide]
10 to 50 | Cc1nc(C#N)cc(NCC[C@@H]2C[C@@H]2C2CCN(c3ncc(Cl)cn3)CC2)n1 [Ex 5, 6-[(2-{(1S,2S)-2-[1-(5-chloropyrimidin-2-yl)piperidin-4-yl]cyclopropyl}ethyl)amino]-2-methylpyrimidine-4-carbonitrile]
< 10 | Cc1nc(C#N)cc(NCC[C@@H]2C[C@@H]2C2CCN(c3ncc(Cl)cn3)CC2)n1 (racemic) [Ex 4, rac-cis-6-[(2-{2-[1-(5-chloropyrimidin-2-yl)piperidin-4-yl]cyclopropyl}ethyl)amino]-2-methylpyrimidine-4-carbonitrile]
10 to 50 | CC(=O)Nc1ccc(NCC[C@@H]2C[C@@H]2C2CCN(c3ncc(Cl)cn3)CC2)nc1 [Ex 35, N-{6-[(2-{(1S,2S)-2-[1-(5-chloropyrimidin-2-yl)piperidin-4-yl]cyclopropyl}ethyl)amino]pyridin-3-yl}acetamide]
10 to 50 | Cc1cc(C#N)cc(NCC[C@@H]2C[C@@H]2C2CCN(c3ncc(Cl)cn3)CC2)n1 [Ex 40, 2-[(2-{(1S,2S)-2-[1-(5-chloropyrimidin-2-yl)piperidin-4-yl]cyclopropyl}ethyl)amino]-6-methylisonicotinonitrile]
< 10 | Clc1cnc(N2CCC([C@H]3C[C@H]3CCNc3ccc4cn[nH]c4c3)CC2)nc1 [Ex 57, N-(2-{(1S,2S)-2-[1-(5-chloropyrimidin-2-yl)piperidin-4-yl]cyclopropyl}ethyl)-1H-indazol-6-amine]
< 10 | Clc1cnc(N2CCC([C@H]3C[C@H]3CCNc3cnc(-n4cncn4)cn3)CC2)nc1 [Ex 23, N-(2-{(1S,2S)-2-[1-(5-chloropyrimidin-2-yl)piperidin-4-yl]cyclopropyl}ethyl)-5-(1H-1,2,4-triazol-1-yl)pyrazin-2-amine]
< 10 | O=C1Cc2cc(NCC[C@@H]3C[C@@H]3C3CCN(c4ncc(Cl)cn4)CC3)cc(Cl)c2N1 [Ex 54, 7-chloro-5-[(2-{(1S,2S)-2-[1-(5-chloropyrimidin-2-yl)piperidin-4-yl]cyclopropyl}ethyl)amino]-1,3-dihydro-2H-indol-2-one]
10 to 50 | Clc1cnc(N2CCC([C@H]3C[C@H]3CCNc3cnc(-n4cncn4)nc3)CC2)nc1 [Ex 16, N-(2-{(1S,2S)-2-[1-(5-chloropyrimidin-2-yl)piperidin-4-yl]cyclopropyl}ethyl)-2-(1H-1,2,4-triazol-1-yl)pyrimidin-5-amine]
10 to 50 | CN1Cc2cc(NCC[C@@H]3C[C@@H]3C3CCN(c4ncc(Cl)cn4)CC3)ccc2C1=O [Ex 45, 5-[(2-{(1S,2S)-2-[1-(5-chloropyrimidin-2-yl)piperidin-4-yl]cyclopropyl}ethyl)amino]-2-methylisoindolin-1-one]
10 to 50 | Cc1cc(C#N)nc(NCC[C@@H]2C[C@@H]2C2CCN(c3ncc(Cl)cn3)CC2)c1 [Ex 41, 6-[(2-{(1S,2S)-2-[1-(5-chloropyrimidin-2-yl)piperidin-4-yl]cyclopropyl}ethyl)amino]-4-methylpyridine-2-carbonitrile]
10 to 50 | CC(=O)Nc1cnc(NCC[C@@H]2C[C@@H]2C2CCN(c3ncc(Cl)cn3)CC2)c(C)c1 [Ex 33, N-{6-[(2-{(1S,2S)-2-[1-(5-chloropyrimidin-2-yl)piperidin-4-yl]cyclopropyl}ethyl)amino]-5-methylpyridin-3-yl}acetamide]
< 10 | Cc1cc(NC(=O)C(C)(C)C)cnc1NCC[C@@H]1C[C@@H]1C1CCN(c2ncc(Cl)cn2)CC1 [Ex 28, N-{6-[(2-{(1S,2S)-2-[1-(5-chloropyrimidin-2-yl)piperidin-4-yl]cyclopropyl}ethyl)amino]-5-methylpyridin-3-yl}-2,2-dimethylpropanamide]
< 10 | Cc1cc(NCC[C@@H]2C[C@@H]2C2CCN(c3ncc(Cl)cn3)CC2)cc(C#N)n1 [Ex 22, 4-[(2-{(1S,2S)-2-[1-(5-chloropyrimidin-2-yl)piperidin-4-yl]cyclopropyl}ethyl)amino]-6-methylpyridine-2-carbonitrile]
10 to 50 | O=C1COC(=O)N1c1ccc(NCC[C@@H]2C[C@@H]2C2CCN(c3ncc(Cl)cn3)CC2)cn1 [Ex 27]
